Source: patent US20080050355A1, “PROTECTION OF BIOACTIVE FOOD INGREDIENTS BY MEANS OF ENCAPSULATION” (COMPAGNIE GERVAIS DANONE, priority 2004, published 2008)
Entries after “also recorded” stand apart in the source; their conditions may differ. Like-named read-outs stand apart in the source and are kept apart here. Peptide text beside a SMILES is read from it.

Key:
pathogenic strains = conditions: In vitro, cited from earlier work
[1] = Dog, 10 g/300 mL water by stomach tube; cancelled by naloxone; Defilippi 1986; cited from earlier work
[2] = In vivo animal; Migliore-Samour 1988; cited from earlier work
[3] = Human hypertension (36 patients), after 8 weeks' ingestion of 95 mL/d; Hata 1996; cited from earlier work
[4] = Hypertensive rats, after ingestion; Nakamura 1995; cited from earlier work
[5] = Normal rats; Nakamura 1995; cited from earlier work
platelet aggregation = conditions: In vitro; Jollès 1986; cited from earlier work
[6] = test system: ferment YC380 (Chr. Hansen); test: Fermentation of milk mix containing hydrolysate up to pH 4.7, residual peptides by HPLC-MS/MS; assay type: physicochemical
Description: FIG. 3: Compared peptide profiles (LC-MS/MS chromatograms) of a milk “mix” containing 1.5 g/L DMV C12® hydrolysate before (1) and after (2) fermentation up to pH 4.7 by the lacetic ferment Hansen YC380. Almost all the peptides of the hydrolysate, including the bioactive C12 peptide (fragment αS1[23-34] disappeared after metabolisation by the ferment strains.
(§1) Protocol: the medium was prepared by hydrating a skimmed milk powder at 120 g/L, to which 1.5 g/L of Lactium® ingredient is added (corresponding to approximately 30 mg/L αs1 [91-100] bioactive peptide) then pasteurised at 95° C. for 8 minutes.
(§2) The lacetic ferment was added at a percentage of 0.02% and fermentation was conducted at the optimal temperature of the chosen ferment (between 37 and 42° C.) up to a pH of 4.70.
Analysis of the residual peptides, in particular of the bioactive peptide αS1[91-100], was conducted using a HPLC method coupled to a detector of MS/MS type as described below: • the sample was prepared by diluting the fermented medium in a mixture of water, methanol and trifluoroacetic acid (50/50/0.1%) to a ratio of approximately 1 to 6. […] For example the αS1[91-100] peptide was isolated from its mass (double charged ion of mass 634.5 Da) and quantified from the intensity of its characteristic daughter ions after fragmenting (ions with m/z 991.5 Da, 771.5 Da and 658.3 Da). […]

fermented mass = test: Storage of fermented mass with Lactium encapsulated in palm oil emulsion; assay type: physicochemical
Description: FIG. 6: Illustration of the change in content of encapsulated bioactive ingredient over time (storage at 4° C.).
FIG. 7: Compared peptide profiles (LC-MS/MS chromatograms) of a milk mix containing 1.5 g/L Lactium® added in the form of an emulsion in palm oil according to the present invention, immediately after addition to the fermented mass (1) and after 14 days' storage at 10° C. (2).
The oil was melted at 50° C. to obtain total absence of crystals, and the Lactium® containing the bioactive food ingredient αS1(91-100] was gradually added under magnetic stirring (maintained at 50° C.).
A type of syrup was prepared from water and the premix of palm oil/bioactive food ingredient. The bioactive food ingredient was gradually added to the water (30° C.) under Ultraturax stirring (22000 rpm), the palm content of the solution being arbitrarily fixed at […].
The emulsion obtained was easily pumpable at 30° C.-35° C., but became progressively firmer as soon as the temperature fell to below 25° C.-30° C. (progressive recrystallisation of the palm oil). The use of a food emulsifier (e.g. Lactem® supplied by Danisco) to the proportion of 0.5%/fat led to obtaining a population of fatty globules that was less heterogeneous.

[7] = test system: Pure strains (S. thermophilus); test: Fermentation of reconstituted milk with 1.5 g/L Lactium by pure strains; assay type: physicochemical; conditions: milk mix containing 1.5 g/L Lactium®, fermentation halted at pH 4.7
Description: (§3) Analysis of the residual peptides, in particular of the bioactive peptide αS1[91-100], was conducted using a HPLC method coupled to a detector of MS/MS type as described below: • the sample was prepared by diluting the fermented medium in a mixture of water, methanol and trifluoroacetic acid (50/50/0.1%) to a ratio of approximately 1 to 6. The supernatant after centrifuging formed the sample representing the peptide content of the fermented medium. • this sample was injected into a HPLC chromatography system of Agilent 1100 type (Agilent Technologies France, 1 rue Galvani 91745 Massy Cedex France) equipped with a column adapted for peptide analysis of Waters Symetry® type (5 μm 2.1×150 mm, WAT056975, Waters, France, 5 Rue Jacques Monod, 78280 Guyancourt) at a temperature of 40° C. and flow rate 0.25 ml/min. The peptides were eluted in conventional manner against an increasing gradient of solvent B (Acetonitrile+0.100% formic acid) in solvent A (Water+0.106% formic acid) for a time of 40 min to 2 hours in relation to desired resolution. • detection was made using a specific detector of MS/MS type, for example of ion trap type such as the Esquire 3000+(Bruker, Daltonique, rue de l'Industrie 67166 Wissembourg Cedex) adjusted either for global analysis of the peptide content (MS-MS mode) or for precise, specific quantification of a peptide from its characteristic fragments. For example the αS1[91-100] peptide was isolated from its mass (double charged ion of mass 634.5 Da) and quantified from the intensity of its characteristic daughter ions after fragmenting (ions with m/z 991.5 Da, 771.5 Da and 658.3 Da). In even more precise manner, an internal standard consisting of the same synthetic peptide deuterated twice (characteristic fragment of 993.5 Da) allowed any matrix-related interferences to be overcome and taken into account.
(§4) To verify that this phenomenon is not particular to the two ferments used in paragraph 1.1) above, the main industrial ferments and different pure strains entering into the composition of these ferments, were tested on the same test basis: milk reconstituted from milk powder, to which Lactium® was added at a dose of 1.5 g/L, was fermented under standard conditions (optimal ferment temperature between 37 and 42° C., halting of fermentation at pH 4.7, two repeats). Analysis of the level of αS1[91-100] bioactive peptide was conducted on the sample before and after fermentation.
(§5) In Table 3 above, which reflects consumption of the bioactive peptide aS1[91-100] by different ferments and industrial strains during fermentation of a milk mix containing 1.5 g/L Lactium®, the pure strains were identified by their numbers and respective date of depositing with the CNCM (Institut Pasteur, Paris France).

[8] = test system: Pure strains (Lactobacillus); test: as above; assay type: physicochemical; conditions: milk mix containing 1.5 g/L Lactium®, fermentation halted at pH 4.7
Description: as §3, §4, §5

[9] = test system: ferment consisting of a mixture of strains 1-2783, 1-2774, 1-2835 and 1-1968; test: Fermentation of milk mix containing Lactium up to pH 4.70, residual peptides by HPLC-MS/MS; assay type: physicochemical; conditions: 1.5 g/L Lactium® added before fermentation
Description: as §1, §2
Analysis of the residual peptides, in particular of the bioactive peptide αS1[91-100], was conducted using a HPLC method coupled to a detector of MS/MS type as described below: • the sample was prepared by diluting the fermented medium in a mixture of water, methanol and trifluoroacetic acid (50/50/0.1%) to a ratio of approximately 1 to 6. […] The peptides were eluted in conventional manner against an increasing gradient of solvent B (Acetonitrile+0.100% formic acid) in solvent A (Water+0.106% formic acid) for a time of 40 min to 2 hours in relation to desired resolution. • detection was made using a specific detector of MS/MS type, for example of ion trap type such as the Esquire 3000+(Bruker, Daltonique, rue de l'Industrie 67166 Wissembourg Cedex) adjusted either for global analysis of the peptide content (MS-MS mode) or for precise, specific quantification of a peptide from its characteristic fragments. […]

[10] = Storage of fermented then thermised product with peptide added after fermentation; assay type: physicochemical; conditions: thermised at 75° C. for 1 minute, stored at 10° C. until BBD (FIG. 5)
Description: FIG. 5: Curves illustrating changes in the residual content of αS1[91-100] bioactive peptide added after fermentation, in a product fermented and then thermised at 75° C. for 1 minute and stored at 10° C. until the Best Before Date (BBD).
This solution effectively has numerous drawbacks: • thermisation of a fermented milk mass implies the use of stabilisers added before the heat treatment (pectins, starches, carrageenans, etc.) which complicates the method and substantially increases the cost of the formula; • the industrial production line is more complex and requires specific, higher investment; • the product no longer benefits from quality labels related to products containing living ferments (yoghurt type), and thereby loses the benefits associated with the consumption of lacetic ferments; • the organoleptic impact (generally negative) is significant.

Compound: CC[C@H](C)[C@H](NC(=O)[C@@H]1CCCN1C(=O)[C@H](Cc1cnc[nH]1)NC(=O)[C@H](CCCCN)NC(=O)[C@@H]1CCCN1C(=O)[C@@H](N)CCCNC(=N)N)C(=O)N[C@@H](CCCCN)C(=O)N[C@@H](Cc1cnc[nH]1)C(=O)N[C@@H](CCC(N)=O)C(=O)NCC(=O)N[C@@H](CC(C)C)C(=O)N1CCC[C@H]1C(=O)N[C@@H](CCC(N)=O)C(=O)N[C@@H](CCC(=O)O)C(=O)N[C@H](C(=O)N[C@@H](CC(C)C)C(=O)N[C@@H](CC(N)=O)C(=O)N[C@@H](CCC(=O)O)C(=O)N[C@@H](CC(N)=O)C(=O)N[C@@H](CC(C)C)C(=O)N[C@@H](CC(C)C)C(=O)N[C@@H](CCCNC(=N)N)C(=O)N[C@@H](Cc1ccccc1)C(=O)O)C(C)C [isracidin] (H-RPKHPIKHQGLPQEVLNENLLRF-OH)
- growth of pathogenic strains (pathogenic strains; Lahov 1996): Inhibited growth of pathogenic

Compound: Casein
- small intestine motility [1]: inhibition of small intestine

Compound: Casein 63-68: fragment 63-68 of bovine β-casein (PGPIPN; UniProt P02666 78-83, looked up, fragment)
- in vivo protection [2]: No in vivo protection

Compound: Casein 191-193: fragment 191-193 of bovine β-casein (LLY; UniProt P02666 206-208, looked up, fragment)
- in vivo protection [2]: No in vivo protection

Compound: Il-Pro-Pro [Il-Pro-Pro (IPP)]
- blood pressure [3]: reduced blood pressure
- blood pressure [4]: ingestion, reduced blood
- blood pressure [5]: Normal rats: no effect

Compound: Lactoferricin
- growth of pathogenic strains (pathogenic strains; Tomita 1994-Zucht 1995): Inhibited growth of pathogenic strains

Compound: Peptide 106-116 of bovine κ-casein: fragment 106-116 of bovine κ-casein (MAIPPKKNQDK; UniProt P02668 127-137, looked up, fragment)
- platelet aggregation (platelet aggregation): Inhibits

Compound: Val-Pro-Pro [Val-Pro-Pro (VPP)]
- blood pressure [3]: reduced blood pressure
- blood pressure [4]: ingestion, reduced blood
- blood pressure [5]: Normal rats: no effect

Compound: αS1[23-34]: bioactive C12 peptide, present in the C12 ingredient by DMV International and in Lactium® (FFVAPFPEVFGK; UniProt P02662 38-49, looked up, fragment)
- peptides after fermentation (LC-MS/MS peptide profile) ([6]; milk mix containing 1.5 g/L DMV C12® hydrolysate, fermentation up to pH 4.7 (FIG. 3)): disappeared
- protection of peptide (LC-MS/MS peptide profile) (fermented mass; 1.5 g/L Lactium® as emulsion in palm oil, after 14 days' storage at 10° C. (FIG. 7)): well protected

Compound: αS1[91-100]: bioactive peptide with relaxing properties contained in the hydrolysate of milk proteins marketed by Ingredia as Lactium® (YLGYLEQLLR; UniProt P02662 106-115, looked up, fragment)
- bioactive peptide consumed after fermentation ([6]; 1.5 g/L Lactium® added before fermentation, up to pH 4.70): more than 95%
- % αS1[91-100] peptide remaining after fermentation ([7]; strain 1-1477 (22 Sep. 1994)): 0.3%
- % αS1[91-100] peptide remaining after fermentation ([7]; strain 1-1630 (24 Oct. 1995)): 0.3%
- % αS1[91-100] peptide remaining after fermentation ([8]; strain 1-1519 (30 Dec. 1994)): 0.1%
- % αS1[91-100] peptide remaining after fermentation ([8]; strain 1-1632 (24 Oct. 1995)): 0.2%
- % αS1[91-100] peptide remaining after fermentation ([8]; strain 1-1968 (14 Jan. 1998)): 1.6%
- % αS1[91-100] peptide remaining after fermentation ([8]; strain 1-2809 (19 Feb. 2002)): 0.4%
- bioactive peptide consumed after fermentation [9]: more than 95%
- content of encapsulated bioactive ingredient over time (fermented mass; encapsulated in palm oil emulsion, added to fermented white mass, storage at 4° C. (FIG. 6)): stability
- stability of the peptide in heat-treated fermented product [10]: possible to ensure the stability; also recorded: possible to preserve
